The test system of experiment [1] is Aβ40 in conditioned medium of cells stably expressing Amyloid Precursor Protein (APP). Kind of experiment: In vitro BACE-1 cell-based assay (Aβ40 sandwich ELISA). The settings on record: read-out: IC50 IP (μM) BACE1 cell. Summed up: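 APP-expressing cells treated 24 h at 37 °C with compound in 10-point dose response (top 100 μM or 10 μM, 0.1% DMSO final). Secreted Aβ40 in conditioned medium quantified by sandwich ELISA (pAb40 capture, biotinylated 6E10 detection, time-resolved europium fluorescence); IC50 from percent inhibition versus concentration.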
In general terms: ELISA stands for enzyme-linked immunosorbent assay.

The target in another experiment is human recombinant BACE1 (Homo sapiens (Human), UniProt P56817). The experiment in a line: In vitro enzymatic BACE1 FRET assay. It counts as biochemical. The settings on record: read-out: IC50 IP (μM) BACE1 enzyme. The gist of the method:
(§1)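 Protease purified by Ni-NTA chromatography; start with FRET substrate (50 nM); incubate 1 h; quench with Tris to neutral pH; read fluorescence ex 488 / em 590 nm.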

The target in a further experiment is human recombinant BACE2 (Homo sapiens (Human), UniProt Q9Y5Z0). Kind of experiment: In vitro enzymatic BACE2 FRET assay. The settings on record: read-out: IC50 IP (μM) BACE2 enzyme. Type of experiment: biochemical. Summed up: as §1
human recombinant BACE2, sequence (Q9Y5Z0 63-518): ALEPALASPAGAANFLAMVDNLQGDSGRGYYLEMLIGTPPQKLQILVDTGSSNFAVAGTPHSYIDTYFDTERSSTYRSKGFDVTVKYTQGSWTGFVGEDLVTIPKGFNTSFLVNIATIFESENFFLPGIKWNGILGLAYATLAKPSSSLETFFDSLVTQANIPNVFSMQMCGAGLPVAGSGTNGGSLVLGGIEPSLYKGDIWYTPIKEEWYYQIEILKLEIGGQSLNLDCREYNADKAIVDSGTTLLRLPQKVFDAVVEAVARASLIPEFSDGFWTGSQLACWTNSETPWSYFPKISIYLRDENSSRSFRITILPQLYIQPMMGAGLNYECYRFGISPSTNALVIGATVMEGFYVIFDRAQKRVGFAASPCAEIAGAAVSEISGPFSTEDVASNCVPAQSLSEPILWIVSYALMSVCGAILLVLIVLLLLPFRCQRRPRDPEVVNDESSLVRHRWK
The target of another experiment is Recombinant Cat D (Homo sapiens (Human), UniProt P07339). The experiment in a line: In vitro enzymatic Cathepsin D (Cat D) FRET assay. It counts as biochemical. To be noted: read-out: IC50 IP (μM) CatD. The gist of the method: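 Assay pH is 3.5 (0.05 M citrate, 5 mM CHAPS, 10% DMSO final) with Cat D from CHO cells. A 20 nM quenched peptide substrate is cleaved over one hour; the reaction is ended with Tris and read by fluorescence (ex 500, em 580 nm).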
Recombinant Cat D, sequence (P07339 65-412): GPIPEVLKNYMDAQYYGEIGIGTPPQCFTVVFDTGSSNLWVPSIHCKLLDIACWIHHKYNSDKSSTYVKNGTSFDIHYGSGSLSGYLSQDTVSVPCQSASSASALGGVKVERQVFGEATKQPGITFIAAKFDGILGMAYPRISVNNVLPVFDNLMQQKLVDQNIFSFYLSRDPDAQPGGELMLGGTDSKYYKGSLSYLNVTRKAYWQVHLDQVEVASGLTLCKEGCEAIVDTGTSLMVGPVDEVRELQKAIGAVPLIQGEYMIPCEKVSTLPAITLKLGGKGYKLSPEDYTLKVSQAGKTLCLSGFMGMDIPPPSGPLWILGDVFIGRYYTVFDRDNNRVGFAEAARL

human recombinant BACE1, sequence (P56817 46-501): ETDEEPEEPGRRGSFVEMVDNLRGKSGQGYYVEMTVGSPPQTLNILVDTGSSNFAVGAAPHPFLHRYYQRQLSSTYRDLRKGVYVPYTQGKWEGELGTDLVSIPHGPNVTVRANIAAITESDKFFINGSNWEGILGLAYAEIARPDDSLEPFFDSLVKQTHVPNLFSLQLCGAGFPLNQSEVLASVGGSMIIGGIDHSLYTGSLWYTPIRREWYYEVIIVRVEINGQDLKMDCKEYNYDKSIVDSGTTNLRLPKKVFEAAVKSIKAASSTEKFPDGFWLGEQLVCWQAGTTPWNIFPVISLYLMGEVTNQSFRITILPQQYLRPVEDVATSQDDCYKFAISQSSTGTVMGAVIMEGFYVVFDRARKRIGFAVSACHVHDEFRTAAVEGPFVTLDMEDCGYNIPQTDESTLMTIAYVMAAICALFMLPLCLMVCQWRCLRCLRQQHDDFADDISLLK

Consider `C[C@H](Oc1cnc2c(Nc3cc(F)c(F)c([C@@]4(C)N=C(N)S[C@@]5(C#N)C[C@H]54)c3)nccc2n1)c1ncco1` [Example 939, (1S,5S,6S)-3-amino-5-(2,3-difluoro-5-((2-((1S)-1-(1,3-oxazol-2-yl)ethoxy)pyrido[3,4-b]pyrazin-5-yl)amino)phenyl)-5-methyl-2-thia-4-azabicyclo[4.1.0]hept-3-ene-1-carbonitrile], for which the IC50 came out at 0.165 µM in experiment [1], 0.000867 µM on human recombinant BACE1, 0.127 µM on human recombinant BACE2 and 209 µM at Recombinant Cat D.
As to `C[C@]1(c2cc(NC(=O)c3cnc(OCC(F)(F)F)cn3)cc(F)c2F)N=C(N)S[C@@]2(C#N)C[C@H]21` [Example 940, N-(3-((1S,5S,6S)-3-amino-1-cyano-5-methyl-2-thia-4-azabicyclo[4.1.0]hept-3-en-5-yl)-4,5-difluorophenyl)-5-(2,2,2-trifluoroethoxy)-2-pyrazinecarboxamide], the IC50 in experiment [1] was determined as 0.015 µM; on human recombinant BACE1, 0.004 µM; at human recombinant BACE2, 0.0224 µM; at Recombinant Cat D, 1390 µM.
For `C#CCOc1cnc2c(Nc3ccc(F)c([C@@]4(CF)N=C(N)S[C@@]5(COC)C[C@H]54)c3)ncnc2c1` [Example 942, N-(3-((1S,5S,6S)-3-amino-5-(fluoromethyl)-1-(methoxymethyl)-2-thia-4-azabicyclo[4.1.0]hept-3-en-5-yl)-4-fluorophenyl)-7-(2-propyn-1-yloxy)pyrido[3,2-d]pyrimidin-4-amine], the IC50 was determined as 0.00518 µM in experiment [1], 0.00314 µM on human recombinant BACE1, 0.0417 µM on human recombinant BACE2 and 1090 µM on Recombinant Cat D.
Turning to `C#CCOc1cnc2c(Nc3cc(F)c(F)c([C@@]4(C)N=C(N)S[C@@]5(COC)C[C@H]54)c3)ncnc2c1` [Example 943, N-(3-((1S,5S,6S)-3-amino-1-(methoxymethyl)-5-methyl-2-thia-4-azabicyclo[4.1.0]hept-3-en-5-yl)-4,5-difluorophenyl)-7-(2-propyn-1-yloxy)pyrido[3,2-d]pyrimidin-4-amine], the IC50 in experiment [1] came out at 0.00593 µM; on human recombinant BACE1 it was 0.00223 µM; on human recombinant BACE2, 0.101 µM; on Recombinant Cat D, 571 µM.
As to `C#CCOc1cnc2c(Nc3cnc(F)c([C@@]4(C)N=C(N)S[C@@]5(CF)C[C@H]54)c3)ncnc2c1` [Example 944, N-(5-((1S,5S,6S)-3-amino-1-(fluoromethyl)-5-methyl-2-thia-4-azabicyclo[4.1.0]hept-3-en-5-yl)-6-fluoro-3-pyridinyl)-7-(2-propyn-1-yloxy)pyrido[3,2-d]pyrimidin-4-amine], the IC50 in experiment [1] is 0.00216 µM; at human recombinant BACE1 it was 0.00102 µM; on human recombinant BACE2, 0.0696 µM; on Recombinant Cat D, greater than 400 µM.
On to `COCCOc1cnc2c(Nc3cc(F)c(F)c([C@@]4(C)N=C(N)S[C@@]5(COC)C[C@H]54)c3)ncnc2c1` [Example 946, N-(3-((1S,5S,6S)-3-amino-1-(methoxymethyl)-5-methyl-2-thia-4-azabicyclo[4.1.0]hept-3-en-5-yl)-4,5-difluorophenyl)-7-(2-methoxyethoxy)pyrido[3,2-d]pyrimidin-4-amine], for which the IC50 in experiment [1] was determined as 0.0174 µM; at human recombinant BACE1, 0.0268 µM; on human recombinant BACE2 it was 0.517 µM; at Recombinant Cat D, 352 µM.
Consider `COCCOc1cnc2c(Nc3ccc(F)c([C@@]4(CF)N=C(N)S[C@@]5(COC)C[C@H]54)c3)ncnc2c1` [Example 947, N-(3-((1S,5S,6S)-3-amino-5-(fluoromethyl)-1-(methoxymethyl)-2-thia-4-azabicyclo[4.1.0]hept-3-en-5-yl)-4-fluorophenyl)-7-(2-methoxyethoxy)pyrido[3,2-d]pyrimidin-4-amine], for which the IC50 in experiment [1] was 0.0337 µM; at human recombinant BACE1, 0.0282 µM; on human recombinant BACE2, 0.519 µM; at Recombinant Cat D, 595 µM.
For the compound `COC[C@]12C[C@H]1[C@@](C)(c1cc(Nc3ncnc4cc(OCc5nc(C)oc5C)cnc34)cc(F)c1F)N=C(N)S2` [Example 948, N-(3-((1S,5S,6S)-3-amino-1-(methoxymethyl)-5-methyl-2-thia-4-azabicyclo[4.1.0]hept-3-en-5-yl)-4,5-difluorophenyl)-7-((2,5-dimethyl-1,3-oxazol-4-yl)methoxy)pyrido[3,2-d]pyrimidin-4-amine], the IC50 in experiment [1] came out at 0.0102 µM; at human recombinant BACE1 it was 0.00304 µM; on human recombinant BACE2, 0.144 µM; at Recombinant Cat D, 80.9 µM.
Take `C[C@]1(c2cc(Nc3ncc(F)c4cc(OCc5ncco5)cnc34)cc(F)c2F)N=C(N)S[C@@]2(C(F)F)C[C@@H]12` [Example 949, N-(3-((1S,5S,6S)-3-amino-1-(difluoromethyl)-5-methyl-2-thia-4-azabicyclo[4.1.0]hept-3-en-5-yl)-4,5-difluorophenyl)-5-fluoro-3-(1,3-oxazol-2-ylmethoxy)-1,7-naphthyridin-8-amine]: the IC50 in experiment [1] was found to be 0.0841 µM; on human recombinant BACE1, 0.00245 µM; on human recombinant BACE2 it was 0.0588 µM; on Recombinant Cat D it was 336 µM.
Regarding `COC[C@]12C[C@H]1[C@@](C)(c1cc(Nc3ncc(F)c4cc(OCc5ncco5)cnc34)cc(F)c1F)N=C(N)S2` [Example 950, N-(3-((1S,5S,6S)-3-amino-1-(methoxymethyl)-5-methyl-2-thia-4-azabicyclo[4.1.0]hept-3-en-5-yl)-4,5-difluorophenyl)-5-fluoro-3-(1,3-oxazol-2-ylmethoxy)-1,7-naphthyridin-8-amine], the IC50 in experiment [1] was found to be 0.104 µM; at human recombinant BACE1, 0.0051 µM; at human recombinant BACE2 it was 0.118 µM; on Recombinant Cat D, 384 µM.
Taken in the same sequence, the figures for `C#CCOc1cnc2c(Nc3cc(F)c(F)c([C@@]4(C)N=C(N)S[C@@]5(COC)C[C@H]54)c3)ncc(F)c2c1` [Example 951, N-(3-((1S,5S,6S)-3-amino-1-(methoxymethyl)-5-methyl-2-thia-4-azabicyclo[4.1.0]hept-3-en-5-yl)-4,5-difluorophenyl)-5-fluoro-3-(2-propyn-1-yloxy)-1,7-naphthyridin-8-amine] were 0.0603 µM, 0.00233 µM, 0.0497 µM and 915 µM.
Take `CCC#CCOc1cnc2c(Nc3ccc(F)c([C@@]4(CF)N=C(N)S[C@@]5(/C=C/C(=O)N(C)C)C[C@H]54)c3)nccc2n1` [Example 952, (2E)-3-((1R,5S,6S)-3-amino-5-(fluoromethyl)-5-(2-fluoro-5-((2-(2-pentyn-1-yloxy)pyrido[3,4-b]pyrazin-5-yl)amino)phenyl)-2-thia-4-azabicyclo[4.1.0]hept-3-en-1-yl)-N,N-dimethyl-2-propenamide]: the IC50 in experiment [1] was 0.0108 µM; at human recombinant BACE1, 0.00126 µM; at human recombinant BACE2, 0.00755 µM; at Recombinant Cat D, 16.3 µM.
Taken in the same sequence, the figures for `C#CCOc1cnc(C(=O)Nc2ccc(F)c([C@@]3(CF)N=C(N)S[C@@]4(COCC(F)(F)F)C[C@H]43)c2)cn1` [Example 953, N-(3-((1S,5S,6S)-3-amino-5-(fluoromethyl)-1-((2,2,2-trifluoroethoxy)methyl)-2-thia-4-azabicyclo[4.1.0]hept-3-en-5-yl)-4-fluorophenyl)-5-(2-propyn-1-yloxy)-2-pyrazinecarboxamide] were 0.00149 µM, 0.00028 µM, 0.0267 µM and 61.9 µM.
For the compound `NC1=N[C@](CF)(c2cc(NC(=O)c3ccc(Cl)cn3)ccc2F)[C@@H]2C[C@]2(COCC(F)(F)F)S1` [Example 954, N-(3-((1S,5S,6S)-3-amino-5-(fluoromethyl)-1-((2,2,2-trifluoroethoxy)methyl)-2-thia-4-azabicyclo[4.1.0]hept-3-en-5-yl)-4-fluorophenyl)-5-chloro-2-pyridinecarboxamide], the IC50 in experiment [1] was determined as 0.0144 µM; at human recombinant BACE1, 0.00579 µM; on human recombinant BACE2, 0.00382 µM; at Recombinant Cat D, 715 µM.
Take `C#CCOc1cnc(C(=O)Nc2ccc(F)c([C@@]3(CF)N=C(N)S[C@@]4(COC(C)C)C[C@H]43)c2)cn1` [Example 955, N-(3-((1S,5S,6S)-3-amino-5-(fluoromethyl)-1-((1-methylethoxy)methyl)-2-thia-4-azabicyclo[4.1.0]hept-3-en-5-yl)-4-fluorophenyl)-5-(2-propyn-1-yloxy)-2-pyrazinecarboxamide]: the IC50 in experiment [1] was 0.00178 µM; on human recombinant BACE1 it was 0.000805 µM; at human recombinant BACE2 it was 0.0501 µM; at Recombinant Cat D, 48 µM.
With `NC1=N[C@](CF)(c2cc(NC(=O)c3ccc(Cl)cn3)ccc2F)[C@@H]2C[C@]2(c2c[nH]nn2)S1` [Example 956, N-(3-((1S,5S,6S)-3-amino-5-(fluoromethyl)-1-(1H-1,2,3-triazol-4-yl)-2-thia-4-azabicyclo[4.1.0]hept-3-en-5-yl)-4-fluorophenyl)-5-chloro-2-pyridinecarboxamide], the IC50 in experiment [1] was 0.019 µM; at human recombinant BACE1 it was 0.000927 µM; at human recombinant BACE2, less than 0.00203 µM; on Recombinant Cat D, 341 µM.

What is called IC50 is the concentration that gives 50% inhibition.

The values are drawn from patent US20160046618A1, “Cyclopropyl Fused Thiazin-2-Amine Compounds as Beta-Secretase Inhibitors and Methods of Use” (AMGEN INC., priority 2014, published 2016).
